Source: US12157730B2, “Heteroaryl derivative, method for producing same, and pharmaceutical composition comprising same as effective component” (VORONOI INC., priority 2019, dated 2024)

Legend:
[1] = Cancer cell proliferation suppression, A549; assay type: cell-based; conditions: A459; 72 hours after treatment, CellTiter-Glo
Protocol: (§1) The following experiment was carried out to evaluate the suppression activity of the compounds according to the present invention against proliferation of Ba/F3 and lung cancer cells which express EGFR mutations.
(§2) Of the cancer cell lines expressing the EGFR gene, A549 was cultured after adding 10% FBS (HyClone) to DMEM (Invitrogen), and RPMI-1640 (Invitrogen) with 10% FBS was used for the other cancer cells. For the Ba/F3 cells, RPMI-1640 with 10% FBS and 5 ng/ml IL-3 (R&D Systems) was used. The transduced Ba/F3 cells were cultured by adding 1 ug/ml puromycin (Invitrogen) to the same medium.
(§3) 24 hours before treatment with the compounds, 3000 to 5000 cells were distributed into each well of a white clear bottom 96 well plate (Corning). The compounds were diluted in dimethylsulfoxide (dilution ratio 3:1; 12 concentrations total) and injected 0.5 ul each for a final concentration of 0.3 nM to 50 um. As for measurement of live cells, 72 hours after treatment with the compounds, a CellTiter-Glo luminescent cell-viability reagent (Promega) was used to store the cells at room temperature for 10 minutes, followed by measurement of luminescence using a reader (SynergyNeo, Biotek). Each test was repeated three times.
(§4) The result was calculated as a cell growth ratio (%) compared to a control. The program GraphPad Prism version 5.0 was used to draw the graphs and calculate the GI50 values.

PC9 = test: Lung cancer cell proliferation suppression, PC9; assay type: cell-based; conditions: Homo sapiens, PC-9; 72 hours after treatment, CellTiter-Glo
Protocol: as §1, §2, §3, §4

[2] = system: Ba/F3 cell EGFR Exon20 ins H; test: Ba/F3 cell proliferation suppression, EGFR Exon20 ins H; assay type: cell-based; conditions: 72 hours after treatment, CellTiter-Glo
Protocol: as §1, §2, §3, §4

H1975 = test: Lung cancer cell proliferation suppression, H1975; assay type: cell-based; conditions: Homo sapiens, NCI-H1975; 72 hours after treatment, CellTiter-Glo
Protocol: as §1, §2, §3, §4

Ba/F3 cell naive = test: Ba/F3 cell proliferation suppression, naive; assay type: cell-based; conditions: Mus musculus, BaF3; 72 hours after treatment, CellTiter-Glo
Procedure, shortened: (§5)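 Growth suppression determined as GI50 following 72 h exposure across 12 concentrations up to 50 um, with viability by luminescent ATP assay (CellTiter-Glo).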

[3] = target: T1, Ba/F3 cell HER2 Exon20 ins YVMA (Homo sapiens, UniProt P04626, INS775YVMA); test: Ba/F3 cell proliferation suppression, HER2 Exon20 ins YVMA; assay type: cell-based; conditions: 72 hours after treatment, CellTiter-Glo
T1 construct: expressed in transfected cells; host or cells: Ba/F3
Procedure, shortened: as §5

[4] = system: scanMAX kinase panel (EGFR mutant, ERBB2, ERBB4); test: DiscoverX (eurofin) KINOMEscan (scanMAX platform) kinase profiling; assay type: binding; conditions: for suppression activity against the EGFR mutant and ERBB2 and ERBB4: KINOMEscan scanMAX kinase profiling
Description: It was confirmed that the above example compounds had high selectivity against EGFR series genes. Accordingly, these can be useful in the treating of cancers wherein this kinase is expressed. In particular, as they have substantially outstanding lung cancer cell line proliferation suppression, they can be useful in the treatment of lung cancer, breast cancer, and brain cancer.

[5] = target: T2, Ba/F3 cell EGFR Exon20 ins ASV (Homo sapiens, UniProt P00533, INS769ASV); test: Ba/F3 cell proliferation suppression, EGFR Exon20 ins ASV; assay type: cell-based; conditions: 72 hours after treatment, CellTiter-Glo
T2 construct: expressed in transfected cells; host or cells: Ba/F3
Procedure, shortened: as §5

[6] = target: T3, Ba/F3 cell EGFR Exon20 ins FQEA (Homo sapiens, UniProt P00533, INS763FQEA); test: Ba/F3 cell proliferation suppression, EGFR Exon20 ins FQEA; assay type: cell-based; conditions: 72 hours after treatment, CellTiter-Glo
T3 construct: expressed in transfected cells; host or cells: Ba/F3
Protocol: as §1, §2, §3, §4

Ba/F3 cell EGFR L858R = target: T4, Ba/F3 cell EGFR L858R (Homo sapiens, UniProt P00533, L858R); test: Ba/F3 cell proliferation suppression, EGFR L858R; assay type: cell-based; conditions: 72 hours after treatment, CellTiter-Glo
T4 construct: expressed in transfected cells; host or cells: Ba/F3
Procedure, shortened: as §5

PC9GR = test: Lung cancer cell proliferation suppression, PC9GR; assay type: cell-based; conditions: 72 hours after treatment, CellTiter-Glo
Protocol: as §1, §2, §3, §4

[7] = system: Ba/F3 cell EGFR Del19/T790M; test: Ba/F3 cell proliferation suppression, EGFR Del19/T790M; assay type: cell-based; conditions: 72 hours after treatment, CellTiter-Glo
Procedure, shortened: as §5

[8] = target: T5, Ba/F3 cell EGFR Exon20 ins SVD (Homo sapiens, UniProt P00533, INS770SVD); test: Ba/F3 cell proliferation suppression, EGFR Exon20 ins SVD; assay type: cell-based; conditions: 72 hours after treatment, CellTiter-Glo
T5 construct: expressed in transfected cells; host or cells: Ba/F3
Procedure, shortened: as §5

[9] = target: T6, Ba/F3 cell EGFR Exon20 ins NPH (Homo sapiens, UniProt P00533, INS773NPH); test: Ba/F3 cell proliferation suppression, EGFR Exon20 ins NPH; assay type: cell-based; conditions: for GI50: 72 hours after treatment, CellTiter-Glo; for Ba/F3 (NPH) Activity: GI50 class, Ba/F3 cell line with NPH inserted at Exon20 of EGFR, 72 hours
T6 construct: expressed in transfected cells; host or cells: Ba/F3
Procedure, shortened: as §5

[10] = target: T7, Ba/F3 cell EGFR L858R/T790M (Homo sapiens, UniProt P00533, L858R/T790M); test: Ba/F3 cell proliferation suppression, EGFR L858R/T790M; assay type: cell-based; conditions: 72 hours after treatment, CellTiter-Glo
T7 construct: expressed in transfected cells; host or cells: Ba/F3
Procedure, shortened: as §5

T1 sequence (P04626 with tags, fused parts or gaps INS775YVMA): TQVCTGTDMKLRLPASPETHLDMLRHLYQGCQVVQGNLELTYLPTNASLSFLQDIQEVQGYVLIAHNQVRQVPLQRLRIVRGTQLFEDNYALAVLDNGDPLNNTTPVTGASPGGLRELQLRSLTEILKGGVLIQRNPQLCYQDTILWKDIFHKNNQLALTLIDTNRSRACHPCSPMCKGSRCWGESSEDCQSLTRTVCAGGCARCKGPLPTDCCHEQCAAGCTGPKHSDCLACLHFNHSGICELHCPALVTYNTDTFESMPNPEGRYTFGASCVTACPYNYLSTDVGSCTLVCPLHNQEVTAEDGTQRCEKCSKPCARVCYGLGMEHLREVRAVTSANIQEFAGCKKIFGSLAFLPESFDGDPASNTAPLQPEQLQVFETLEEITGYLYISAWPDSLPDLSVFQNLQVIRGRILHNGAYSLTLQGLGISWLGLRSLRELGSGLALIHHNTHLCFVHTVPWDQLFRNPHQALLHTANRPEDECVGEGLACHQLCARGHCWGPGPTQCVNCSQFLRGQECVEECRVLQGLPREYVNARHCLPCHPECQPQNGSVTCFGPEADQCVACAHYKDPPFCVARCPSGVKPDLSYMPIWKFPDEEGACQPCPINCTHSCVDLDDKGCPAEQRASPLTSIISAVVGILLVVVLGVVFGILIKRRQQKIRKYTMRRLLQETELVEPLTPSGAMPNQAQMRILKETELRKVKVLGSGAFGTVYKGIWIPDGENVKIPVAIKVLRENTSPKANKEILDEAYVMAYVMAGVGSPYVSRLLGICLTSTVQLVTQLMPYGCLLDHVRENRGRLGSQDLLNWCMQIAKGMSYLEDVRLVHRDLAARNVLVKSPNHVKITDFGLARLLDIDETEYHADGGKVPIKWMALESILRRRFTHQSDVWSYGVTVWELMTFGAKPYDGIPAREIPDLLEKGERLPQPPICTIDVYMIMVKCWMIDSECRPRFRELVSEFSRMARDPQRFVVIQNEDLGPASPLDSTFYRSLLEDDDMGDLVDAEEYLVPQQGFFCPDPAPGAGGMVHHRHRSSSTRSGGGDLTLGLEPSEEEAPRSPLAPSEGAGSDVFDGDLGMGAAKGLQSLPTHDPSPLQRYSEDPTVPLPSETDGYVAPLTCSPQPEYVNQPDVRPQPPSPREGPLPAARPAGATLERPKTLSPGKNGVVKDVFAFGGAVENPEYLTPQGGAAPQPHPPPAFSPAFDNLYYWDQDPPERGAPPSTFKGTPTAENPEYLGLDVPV

SMILES	GI50 [1] [nM]	GI50 (PC9) [nM]	GI50 [2] [µM]	GI50 (H1975) [nM]	GI50 (Ba/F3 cell naive) [µM]	GI50 [3] [µM]	% inhibition of scanMAX Kinase profiling ([4]; EGFR(E746-A750del)) [%]	% inhibition of scanMAX Kinase profiling ([4]; EGFR(G719C)) [%]	% inhibition of scanMAX Kinase profiling ([4]; EGFR(G719S)) [%]	% inhibition of scanMAX Kinase profiling ([4]; EGFR(L747-E749del, A750P)) [%]	% inhibition of scanMAX Kinase profiling ([4]; EGFR(L747-T751del.Sins)) [%]	% inhibition of scanMAX Kinase profiling ([4]; EGFR(L858R)) [%]	% inhibition of scanMAX Kinase profiling ([4]; EGFR(L858R.T790M)) [%]	% inhibition of scanMAX Kinase profiling ([4]; EGFR(L861q)) [%]	% inhibition of scanMAX Kinase profiling ([4]; EGFR(S752-I759del)) [%]	% inhibition of scanMAX Kinase profiling ([4]; EGFR(T790M)) [%]	% inhibition of scanMAX Kinase profiling ([4]; ERBB2) [%]	% inhibition of scanMAX Kinase profiling ([4]; ERBB4) [%]	suppression activity against the EGFR mutant and ERBB2 and ERBB4 [4]	GI50 [5] [µM]	also measured
C=CC(=O)Nc1cc(Nc2cc(N3OCC[C@@H]3c3ccccc3)ncn2)c(OC)cc1N(C)CCN(C)C [Example 4]	> 15000	1	< 0.05	28	≥ 5	< 0.05	100	100	100	97	100	100	96	100	100	99	100	100	high suppression activity	< 0.05	GI50 [6]: < 0.05 µM; GI50 (Ba/F3 cell EGFR L858R): < 0.05 µM; GI50 (PC9GR): 20 nM; GI50 [7]: < 0.05 µM; GI50 [8]: < 0.05 µM; GI50 [9]: < 0.05 µM; Ba/F3 (NPH) Activity [9]: A (GI50 < 50 nM); GI50 [10]: < 0.05 µM
C=CC(=O)Nc1cc(Nc2cc(N3OCC[C@@H]3c3ccccc3)ncn2)c(OC)cc1N1CCN(C)CC1 [Example 6, N-(4-methoxy-2-(4-methylpiperazine-1-yl)-5-((6-((R)-3-phenylisoxazolidine-2-yl)pyrimidine-4-yl)amino)phenyl) acrylamide]	> 15000	1	< 0.05	60	≥ 5	< 0.05	100	100	100	100	100	100	85	100	96	100	100	100	high suppression activity	< 0.05	GI50 [6]: < 0.05 µM; GI50 (Ba/F3 cell EGFR L858R): < 0.05 µM; GI50 (PC9GR): 32 nM; GI50 [7]: < 0.05 µM; GI50 [8]: < 0.05 µM; GI50 [9]: < 0.05 µM; Ba/F3 (NPH) Activity [9]: A (GI50 < 50 nM); GI50 [10]: < 0.05 µM
C=CC(=O)Nc1cc(Nc2cc(N3OCC[C@@H]3c3ccccc3)ncn2)c(OC)cc1N1CCC(N2CCN(C)CC2)CC1 [Example 9]	> 15000	1	< 0.05	6	≥ 5	< 0.05	100	100	100	100	100	100	96	100	100	99	100	100	high suppression activity	< 0.05	GI50 [6]: < 0.05 µM; GI50 (Ba/F3 cell EGFR L858R): < 0.05 µM; GI50 (PC9GR): 4 nM; GI50 [7]: < 0.05 µM; GI50 [8]: < 0.05 µM; GI50 [9]: < 0.05 µM; Ba/F3 (NPH) Activity [9]: A (GI50 < 50 nM); GI50 [10]: < 0.05 µM
